ChEMBL document CHEMBL1201862, “PubChem BioAssay data set” (2004)
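Compound exposure: 48 hours, 5 concentrations, 96-well plates. The concentration for 50% growth inhibition is given as GI50.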 Activity calls are given as the source filed them. Rule as the data show it: active = GI50 up to about 1.1 µM and inactive = higher.

Assays:
Experiment in all cases: growth of human tumour cells (NCI), 48 h
[1] = tested on: RXF 393
[2] = tested on: DU-145
[3] = tested on: IGROV-1
[4] = tested on: Hs-578T
[5] = tested on: NCI-H460
[6] = tested on: SF-539
[7] = tested on: CAKI-1
[8] = tested on: SW-620
[9] = tested on: Malme-3M
[10] = tested on: OVCAR-8
[11] = tested on: MDA-MB-435
[12] = tested on: COLO 205
[13] = tested on: SNB-19
[14] = tested on: MOLT-4
[15] = tested on: SN12C
[16] = tested on: HCT-116
[17] = tested on: KM12
[18] = tested on: A498
[19] = tested on: SK-OV-3
[20] = tested on: HCC 2998

Compound | GI50 [1] | GI50 [2] | GI50 [3] | GI50 [4] | GI50 [5] | GI50 [6] | GI50 [7] | GI50 [8] | GI50 [9] | GI50 [10] | GI50 [11] | GI50 [12] | GI50 [13] | GI50 [14] | GI50 [15] | GI50 [16] | GI50 [17] | GI50 [18] | GI50 [19] | GI50 [20]
C=C1CC2(CCCC3(CC(=C)C(=O)O3)C2(C)C)OC1=O (stereo not drawn) | 3.86 µM (inactive) | 3.73 µM (inactive) | 8.83 µM (inactive) | 20.8 µM (inactive) | 18.7 µM (inactive) | 3.26 µM (inactive) | 2.7 µM (inactive) | 1.39 µM (inactive) | 1.64 µM (inactive) | 1.38 µM (inactive) | 2.75 µM (inactive) | 2.21 µM (inactive) | 17.3 µM (inactive) | 0.302 µM (active) | 3.03 µM (inactive) | 1.44 µM (inactive) | 8.11 µM (inactive) | 21.4 µM (inactive) | 20.5 µM (inactive) | –
C[C@@]1(CO)[C@H](O)CC[C@@]2(C)[C@H]1CC[C@H]1C[C@@H]3C[C@@]12CC[C@@]3(O)COC(=O)CN | – | 2.67 µM (inactive) | – | 53.1 µM (inactive) | – | – | 0.762 µM (active) | – | – | – | 11.6 µM (inactive) | 19.1 µM (inactive) | – | 2.23 µM (inactive) | – | – | 28 µM (inactive) | – | 39.4 µM (inactive) | 4.23 µM (inactive)
N#Cc1nc(-c2ccco2)oc1N | > 10 µM (inactive) | > 10 µM (inactive) | > 10 µM (inactive) | > 10 µM (inactive) | > 10 µM (inactive) | > 10 µM (inactive) | > 10 µM (inactive) | > 10 µM (inactive) | > 10 µM (inactive) | > 10 µM (inactive) | > 10 µM (inactive) | > 10 µM (inactive) | > 10 µM (inactive) | > 10 µM (inactive) | – | > 10 µM (inactive) | > 10 µM (inactive) | – | > 10 µM (inactive) | > 10 µM (inactive)
Oc1cc(-c2ccc(Cl)cc2)cn2c1nc1ccccc12 | > 100 µM (inactive) | > 100 µM (inactive) | 9.55 µM (inactive) | 36.6 µM (inactive) | 5.21 µM (inactive) | > 100 µM (inactive) | > 100 µM (inactive) | 6.46 µM (inactive) | > 100 µM (inactive) | 17.6 µM (inactive) | 2.2 µM (inactive) | > 100 µM (inactive) | 52.4 µM (inactive) | – | > 100 µM (inactive) | > 100 µM (inactive) | 5.47 µM (inactive) | > 100 µM (inactive) | > 100 µM (inactive) | –
CCCCc1ccc(-n2sc3ncc([N+](=O)[O-])cc3c2=O)cc1 | – | 23.3 µM (inactive) | 13.8 µM (inactive) | 4.93 µM (inactive) | 12.7 µM (inactive) | 15.3 µM (inactive) | 13.4 µM (inactive) | 16.8 µM (inactive) | 7.8 µM (inactive) | 22.9 µM (inactive) | 14.4 µM (inactive) | 18.4 µM (inactive) | 13.7 µM (inactive) | 20.3 µM (inactive) | 17.3 µM (inactive) | 8.57 µM (inactive) | 12 µM (inactive) | – | > 100 µM (inactive) | 12.5 µM (inactive)
O=C(O)C1CCCN1Cc1ccc2c(c1)OCO2 (stereo not drawn) | > 100 µM (inactive) | > 100 µM (inactive) | > 100 µM (inactive) | > 100 µM (inactive) | > 100 µM (inactive) | > 100 µM (inactive) | > 100 µM (inactive) | > 100 µM (inactive) | > 100 µM (inactive) | > 100 µM (inactive) | > 100 µM (inactive) | > 100 µM (inactive) | > 100 µM (inactive) | > 100 µM (inactive) | > 100 µM (inactive) | > 100 µM (inactive) | > 100 µM (inactive) | > 100 µM (inactive) | > 100 µM (inactive) | –
CCCCCCCC(=O)NS(=O)(=O)c1ccccc1 | – | > 100 µM (inactive) | > 100 µM (inactive) | > 100 µM (inactive) | > 100 µM (inactive) | > 100 µM (inactive) | > 100 µM (inactive) | > 100 µM (inactive) | > 100 µM (inactive) | > 100 µM (inactive) | > 100 µM (inactive) | > 100 µM (inactive) | > 100 µM (inactive) | > 100 µM (inactive) | – | > 100 µM (inactive) | > 100 µM (inactive) | > 100 µM (inactive) | > 100 µM (inactive) | > 100 µM (inactive)
Oc1ccc(-c2nc(-c3ccc4ccccc4n3)c(-c3ccc(F)cc3)[nH]2)cc1 | 15.2 µM (inactive) | 15.5 µM (inactive) | 13 µM (inactive) | 11 µM (inactive) | 5.45 µM (inactive) | – | 13.6 µM (inactive) | 14.3 µM (inactive) | 13.7 µM (inactive) | 12.5 µM (inactive) | 12.2 µM (inactive) | 14.6 µM (inactive) | 17.3 µM (inactive) | 1.87 µM (inactive) | 15.3 µM (inactive) | 12.9 µM (inactive) | 5.26 µM (inactive) | – | 15.3 µM (inactive) | 3.94 µM (inactive)
Nc1nc2c(ncn2Cc2ccc(CO)cc2)c(=O)[nH]1 | > 100 µM (inactive) | > 100 µM (inactive) | > 100 µM (inactive) | > 100 µM (inactive) | > 100 µM (inactive) | > 100 µM (inactive) | > 100 µM (inactive) | > 100 µM (inactive) | > 100 µM (inactive) | > 100 µM (inactive) | > 100 µM (inactive) | > 100 µM (inactive) | > 100 µM (inactive) | > 100 µM (inactive) | > 100 µM (inactive) | > 100 µM (inactive) | > 100 µM (inactive) | > 100 µM (inactive) | > 100 µM (inactive) | –
CCCOC(=O)C1C2CCC(O2)C1C(=O)O (stereo not drawn) | > 100 µM (inactive) | > 100 µM (inactive) | > 100 µM (inactive) | > 100 µM (inactive) | – | – | > 100 µM (inactive) | > 100 µM (inactive) | > 100 µM (inactive) | > 100 µM (inactive) | > 100 µM (inactive) | > 100 µM (inactive) | > 100 µM (inactive) | > 100 µM (inactive) | > 100 µM (inactive) | > 100 µM (inactive) | > 100 µM (inactive) | > 100 µM (inactive) | 61 µM (inactive) | –
COc1cc(OC)nc(NC(=O)NS(=O)(=O)c2cccc3ncn(C)c(=O)c23)n1 | > 100 µM (inactive) | > 100 µM (inactive) | > 100 µM (inactive) | 67.1 µM (inactive) | – | > 100 µM (inactive) | > 100 µM (inactive) | > 100 µM (inactive) | > 100 µM (inactive) | > 100 µM (inactive) | > 100 µM (inactive) | > 100 µM (inactive) | > 100 µM (inactive) | > 100 µM (inactive) | > 100 µM (inactive) | > 100 µM (inactive) | – | > 100 µM (inactive) | > 100 µM (inactive) | –
CC(C)CCCC(C)[C@H]1CCC2[C@@H]3CCC4Cc5nc6c(nc5C[C@]4(C)C3CC[C@@]21C)CC1CC[C@@H]2C(CC[C@@]3(C)C2CC[C@@H]3C(C)CCCC(C)C)[C@@]1(C)C6 (stereo partly drawn) | > 100 µM (inactive) | > 100 µM (inactive) | > 100 µM (inactive) | > 100 µM (inactive) | > 100 µM (inactive) | > 100 µM (inactive) | – | > 100 µM (inactive) | > 100 µM (inactive) | > 100 µM (inactive) | > 100 µM (inactive) | > 100 µM (inactive) | > 100 µM (inactive) | > 100 µM (inactive) | > 100 µM (inactive) | > 100 µM (inactive) | > 100 µM (inactive) | > 100 µM (inactive) | > 100 µM (inactive) | –
O=C(Nc1sccc1S(=O)(=O)c1ccccc1)c1cccnc1 | 14.9 µM (inactive) | 39.2 µM (inactive) | 9.02 µM (inactive) | > 46.7 µM (inactive) | 8.34 µM (inactive) | 5.94 µM (inactive) | > 32.7 µM (inactive) | 5.92 µM (inactive) | 8.59 µM (inactive) | 22.7 µM (inactive) | 1.83 µM (inactive) | 3.88 µM (inactive) | > 44.5 µM (inactive) | 5.35 µM (inactive) | 9.86 µM (inactive) | 6.59 µM (inactive) | 4.62 µM (inactive) | – | 11.7 µM (inactive) | 21.3 µM (inactive)
CCN(CC)C(=O)N1CN(c2ccccc2)C2(CCN(CCCC3(c4ccc(F)cc4)OCCO3)CC2)C1=O | 14.7 µM (inactive) | 12.2 µM (inactive) | – | 16.3 µM (inactive) | – | 16.6 µM (inactive) | > 100 µM (inactive) | 18 µM (inactive) | 19.1 µM (inactive) | 19.8 µM (inactive) | 18.6 µM (inactive) | 3.13 µM (inactive) | 30.3 µM (inactive) | 10.4 µM (inactive) | 16.9 µM (inactive) | 11.7 µM (inactive) | 16.5 µM (inactive) | – | 24.4 µM (inactive) | 14.5 µM (inactive)
CCOC(=O)c1c(CN2CCOCC2)n(Cc2ccccc2)c2c1cc(O)c1nc(C)c(C)nc12 | – | 78.2 µM (inactive) | – | 36.1 µM (inactive) | 42 µM (inactive) | 30.8 µM (inactive) | 22.1 µM (inactive) | > 100 µM (inactive) | 45.8 µM (inactive) | 15.5 µM (inactive) | > 100 µM (inactive) | 40 µM (inactive) | 38.2 µM (inactive) | 71 µM (inactive) | > 100 µM (inactive) | 38.3 µM (inactive) | > 100 µM (inactive) | 22 µM (inactive) | 33.3 µM (inactive) | > 100 µM (inactive)
N#C/N=C1/c2ccccc2/C(=N/C#N)c2cc(CO)ccc21 | 27.6 µM (inactive) | 26 µM (inactive) | 29.4 µM (inactive) | 69.2 µM (inactive) | 12.5 µM (inactive) | 51.2 µM (inactive) | 25.3 µM (inactive) | 25.6 µM (inactive) | – | 37.8 µM (inactive) | 27.4 µM (inactive) | – | 51.8 µM (inactive) | 16.4 µM (inactive) | 24.8 µM (inactive) | 29.2 µM (inactive) | 31.8 µM (inactive) | 23.5 µM (inactive) | – | –
